# Experimental data reported in US10624871B2, “Bismuth(III) compounds and methods thereof” (priority 2016, dated 2020).
# Columns and labels:
# E. coli (IMP-4+) = assay: Microdilution MIC and MBC assay, FICI; type: cell-based; settings: Bi(III) compound at 32 μg mL−1, E. coli (IMP-4+)
# E. coli (VIM-2+) = assay: Microdilution MIC and MBC assay, FICI; type: cell-based; settings: Bi(III) compound at 32 μg mL−1, E. coli (VIM-2+)
# [1] = system: Rosetta (DE3) (NDM-1+) bacterial cells; assay: Growth with other β-lactam antibiotics in presence of Bi(III) compounds; type: cell-based, E. coli; settings: CEF 32 μg mL^−1; CBS 32 or Bi-NAC 16 μg mL^−1
# Experimental: Note that evident restoration of activities of antibiotics was observed. The concentrations used in this test represent are: CBS […], Bi-NAC 16 μg mL^−1, all the antibiotics 32 μg mL^−1. Abbreviation: AMOX: amoxicillin; AMP: ampicillin; NAF: nafcillin; CEF: cefdinir.
# NDM-1 [2] = biological target: T1, NDM-1 (Klebsiella pneumoniae, UniProt C7C422); assay: Hydrolysis rates of meropenem by native NDM-1 and Bi-bound NDM-1; type: biochemical; design: unit not given here; settings: MER hydrolysis by Bi-bound NDM-1
# T1 sequence (C7C422 whole entry, looked up): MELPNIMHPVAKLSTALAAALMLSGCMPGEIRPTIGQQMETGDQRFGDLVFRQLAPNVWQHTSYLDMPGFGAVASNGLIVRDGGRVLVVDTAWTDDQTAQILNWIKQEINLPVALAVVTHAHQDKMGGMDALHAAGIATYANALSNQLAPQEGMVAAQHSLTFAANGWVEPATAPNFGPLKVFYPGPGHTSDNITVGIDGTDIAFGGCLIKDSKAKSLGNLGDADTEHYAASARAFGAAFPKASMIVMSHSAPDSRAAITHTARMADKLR
# E. coli (NDM-1−) = assay: Checkerboard MIC analysis, NDM-1-null strain; type: cell-based; settings: NDM-1-null E. coli strain
# Experimental: FIGS. 10 (a)-(b) show a heat map of checkerboard MIC analysis over MER and CBS against clinical isolates of (a) E. coli (NDM-1^+) and (b) E. coli (NDM-1^−).
# MIC values of either antibiotics or Bi(III) compounds were determined firstly by standard broth micro-dilution method (Clinical and Laboratory Standards Institute (CLSI) M100-S20, 2010). Briefly, bacteria cells were cultured in LB broth overnight at 37° C. at 250 rpm and the optical density was measured at 600 nm (OD600) using a microtiter plate reader. The bacteria density was adjusted to about 1×10^6 CFU mL^−1 and checked by CFU counting on agar plates afterwards. Tested compounds were added triplicately into individual wells of flat-bottomed 96-well plates and performed two-fold serial dilution, followed by addition of prepared bacterial inoculum. […] The MIC was determined as the lowest concentration of compounds that could inhibit the growth of microorganism by both visual reading and OD600 measurement. […]
# For the test of drug combination, antibiotics and Bi(III) compounds were co-administrated at concentrations up to 8 times higher than the MIC of the compounds tested alone. […] The FICIs were determined based on the following equation: FICI=FICA+FICB=CA/MICA+CB/MICB where MICA and MICB are the MIC values of compound A and B when functioning alone, and CA and CB are the concentrations of compound A and B at the effective combinations. […]
# NDM-1 [3] = biological target: T1, NDM-1; assay: Zn(II) supplementation assay; type: biochemical; settings: Bi-NDM-1 from apo-NDM-1 and CBS; ZnSO4 up to 2 molar equivalents; apo-NDM-1 + 2 eq Zn = 1
# Experimental: To investigate whether enzyme inhibition can be reversed, enzyme activities of apo-NDM-1 and Bi-NDM-1 were compared with the supplementation of Zn(II). Bi-NDM-1 (50 nM) was prepared by pre-incubation of apo-NDM-1 with CBS for 2 h at 25° C. and the bound Bi was verified using ICP-MS. The above protein solutions were mixed with ZnSO4 at concentration up to 2 molar equivalents to NDM-1 and 100 μM MER. The change in absorbance at 300 nm was monitored in a 1 cm quartz cuvette using Varian Cary® 50 UV-visible spectrophotometer at 25° C. for reaction rate calculations. Reaction rate of apo-NDM-1 with addition of 2 molar equivalents of ZnSO4 was normalized to be 1. […]. […] To confirm this, the metal contents of both Zn(II) and Bi(III) were monitored by inductively-coupled plasma mass spectrometry (ICP-MS) as described below.
# E. coli (NDM-1+) = assay: In vitro cell infection assay in MDCK cells; type: cell-based
# Experimental: To further evaluate the antimicrobial efficacy of CBS in combination with MER, we exploited the in vitro bacterial infection model in mammalian cell. Typically, MDCK cells were cultured in minimum essential Media (MEM) supplemented with fetal bovine serum (FBS, 10%) and grown at 37° C. in the 5% CO2 humidified atmosphere for three days. The MDCK cells were then washed three times with phosphate buffer saline (PBS) solution, liberated with trypsin-EDTA (0.25%) and re-suspended by culture medium. About 500 μL of re-suspended cells were seeded in 24-well plates and incubated as described above for 48 hrs to ensure confluency, resulting in about 1.0×10^5 cells per well by typan blue assay. The freshly grown logarithmic E. coli (NDM-1^+) bacterial cells were washed with PBS for three times and re-suspended in MEM/10% FBS. The density was adjusted to 2×10^7 CFU mL^−1. Then 500 μL of bacterial suspension was added to each well and substituted for the previous MDCK culture medium. […]
# For those cell-invaded bacteria experiments, the infected cells were incubated in culture medium supplemented with 100 μg mL^−1 ciprofloxacin for 1 h to remove extracellular bacteria. […] The assay was performed in triplicate, repeated three times and the results were expressed as average ±SD.
smiles,measurement,setting,value
"O=C([O-])CC([O-])(CC(=O)[O-])C(=O)[O-].O=C([O-])CC([O-])(CC(=O)[O-])C(=O)[O-].[Bi+3].[Bi+3].[K+] [Complex 10, colloidal bismuth subcitrate]",MBC of MER with Bi(III) compound,E. coli (IMP-4+),8 µg/mL
same,MIC of MER with Bi(III) compound,E. coli (IMP-4+),4 µg/mL
same,MBC of MER with Bi(III) compound,E. coli (VIM-2+),1 µg/mL
same,MIC of MER with Bi(III) compound,E. coli (VIM-2+),0.5 µg/mL
same,"reduction of growth rate of bacterial cells, with CEF",[1],76%
same,Vmax,NDM-1 [2],0.26 ± 0.01
same,synergy of MER and CBS in checkerboard MIC,E. coli (NDM-1−),no inhibition was observed
same,enzyme activity restored upon supplementation of Zn(II) to Bi-NDM-1,NDM-1 [3],25%
same,"lowering of intracellular bacterial density compared with mere MER, cell-invaded model",E. coli (NDM-1+); MER (2×MIC) and CBS,9.22 fold
same,"bacterial load, cell-associated model",E. coli (NDM-1+); MER in the presence of CBS (32 μg mL^−1),≤ 10^4 CFU
